Where “and” joins values, the source holds several entries; their conditions need not be identical. Identical values can stand only once. Like-named read-outs stand apart in the source and are kept apart here.
Assays:
[1] = molecular target: T1, His-BTK (Homo sapiens, UniProt Q06187); assay: TR-FRET competition binding assay with BTK-BODIPY tracer; conditions: for binding to BTK (result in words): TRFRET assay, up to 100 μM; for IC50: TR-FRET, 2 nM His-BTK, 150 nM BTK-BODIPY tracer, 2 h incubation
T1 construct: purchased SignalChem B10-10H-10
Procedure: (§1) Panels a-b. […] Panel c. […] Panel d. […] Panel e. […] Panel f.
Time-resolved fluorescence resonance energy transfer (TR-FRET) assay was carried out to evaluate the binding of indicated compounds and BTK by competition with a BODIPY-FL labeled BTK tracer (See FIG. 1, BTK TR-FRET tracer). The assay was performed in 20 μL assay buffer (50 mM Tris, pH7.5, 0.1% Triton X-100, 0.01% BSA, and 1 mM DTT) with 0.3 nM Tb-anti-His (Cisbio, Cat. No. 61HI2TLA), 2 nM His-BTK (SignalChem, Cat. No. […] Unless specified otherwise, all assays were performed in triplicates. The assay mixtures were incubated at room temperature in the dark for 120 min, unless specified otherwise, and the signals were collected using a BioTek Synergy H1 microplate reader to measure the fluorescence emission ratio ([…]) of each well, using a 340-nm excitation filter, a 100-μs delay, and a 200-μs integration time. Raw data from the plate reader were used directly for analysis. The curve-fitting software GraphPad Prism 9 was used to generate graphs and curves and to determine IC50 values.
To measure the binding affinities between PROTACs and BTK, a time-resolved fluorescence resonance energy transfer (TR-FRET) competition binding assay was developed. A BTK tracer was synthesized by conjugating an ibrutinib-based reversible noncovalent binder with the BODIPY-FL dye (FIG. 1). […] In the presence of the BTK tracer, competition assays were performed to measure the binding affinities between BTK and its inhibitors and PROTACs. […] The very weak BTK binding affinities for PS-RC-1, PS-RC-2, PS-RC-3 and PS-RC-4 explain their minimal BTK degradation effects in cells and further support that the observed growth inhibitory effect of PS-RC-1 in Mino cells is unrelated to the BTK pathway.

[2] = molecular target: T2, BTK (Homo sapiens, UniProt Q06187); assay: Western blotting for BTK in Ramos cells; assay type: cell-based; parameters: host or cells: Ramos; conditions: Ramos cells, 40, 200 and 1000 nM, 24 h, Western blot
Procedure: (§2) CC-220 is a IKZF1/3 degrader developed by Celgene and used for comparison.
(§3) In contrast, PS-3, whose warhead is further reduced compared with PS-2, loses its ability to function as either a BTK degrader or a potent IKZF1/3 molecular glue. To confirm this observation, BTK degradation induced by PS-1, PS-2, and PS-3 was tested in both a human B lymphocyte cell line Ramos and mouse BALB/c B cell lymphoma line A20, with DD-03-171 from the Gray group as a positive control (FIG. 5).

[3] = tested on: Mino cells; assay: cells; conditions: Homo sapiens, 72 h
Description: (§7) The cell viabilities were quantified using an Alarma Blue assay.
(§8) Dataset represents an average of n=3 replicates.

[4] = molecular target: T3, BTK (Mus musculus, UniProt P35991); assay: Western blotting for BTK in A20 cells; assay type: cell-based; conditions: A20 cells, 40, 200 and 1000 nM, 24 h, Western blot
T3 construct: host or cells: A20
Procedure: as §2, §3

[5] = tested on: MM.1S cells; assay: Alarma Blue cell viability assay, MM.1S cells; assay type: cell-based; conditions: Homo sapiens, MM1.S, 120 h, read-out: IC50, cell growth inhibition
Description: (§4) Panel a. […] Panel b. […] Panel c. […] Panel d-e. […] Panel g.

[6] = molecular target: T4, GSPT1 (Homo sapiens, UniProt P15170+Q96SW2); assay: Western blotting for GSPT1 in Mino cells; assay type: cell-based; conditions: up to 1000 nM, 24 h, Western blot
T4 construct: host or cells: Mino
Procedure: as §4
Mino cells were seeded into the wells of six-well plates at the density of 5×10^5 cells per mL in 2 mL of complete RPMI-1640 culture medium. After overnight adaptation, cells were treated with serially diluted compounds (from 1,000-1.6 nM, 5-fold dilution) for 24 hours. After treatment, whole cell lysates for immunoblotting were prepared by pelleting Mino cells at 4° C. and 200×g for 5 minutes. The resulting cell pellets were washed once with ice-cold PBS and lysed in 1×RIPA lysis buffer (Alfa Aesar, Cat. No. J62524) supplemented with protease and phosphatase inhibitor cocktail (Thermo Fisher, Cat. No. 78430). Lysates were centrifuged at 15,000×g for 10 min at 4° C. and protein concentrations were assessed using BCA assay (Pierce, Cat. No. 23225). Same amounts of protein (30 μg) for each sample were loaded onto sodium dodecyl sulfate-polyacrylamide gel, separated by electrophoresis (Bio-Rad) at 120 V for 1.5 h and transferred to PVDF membrane using a Transblot Turbo system (Bio-Rad). […] All Western blots were subsequently processed and quantified with Imager software ImageJ and protein level was normalized to the B-actin loading controls.

[7] = tested on: Mino cells; conditions: Mino cells pretreated with PS-RC-Ctrl 2 and 10 μM for 2 h
Description: as §7, §8

[8] = tested on: Rec-R cells; assay: Alarma Blue cell viability assay, Rec-R cells; assay type: cell-based; conditions: 72 h
[9] = molecular target: T2, BTK; assay: Western blotting for BTK in Mino cells; assay type: cell-based; parameters: host or cells: Mino; conditions: up to 1000 nM, 24 h, Western blot
Procedure: Mino cells were seeded into the wells of six-well plates at the density of 5×10^5 cells per mL in 2 mL of complete RPMI-1640 culture medium. After overnight adaptation, cells were treated with serially diluted compounds (from 1,000-1.6 nM, 5-fold dilution) for 24 hours. After treatment, whole cell lysates for immunoblotting were prepared by pelleting Mino cells at 4° C. and 200×g for 5 minutes. The resulting cell pellets were washed once with ice-cold PBS and lysed in 1×RIPA lysis buffer (Alfa Aesar, Cat. No. J62524) supplemented with protease and phosphatase inhibitor cocktail (Thermo Fisher, Cat. No. 78430). Lysates were centrifuged at 15,000×g for 10 min at 4° C. and protein concentrations were assessed using BCA assay (Pierce, Cat. No. 23225). Same amounts of protein (30 μg) for each sample were loaded onto sodium dodecyl sulfate-polyacrylamide gel, separated by electrophoresis (Bio-Rad) at 120 V for 1.5 h and transferred to PVDF membrane using a Transblot Turbo system (Bio-Rad). After blocking for 1 h at room temperature in 1% BSA-TBST, the membranes were immunoblotted with the specified primary antibodies at the dilution of 1:1000 in TBST (Cell Signaling Technology: anti-BTK Cat. No. 8547, anti-IKZF1 Cat. No. 14859, anti-IKZF3 Cat. No. 15103, anti-β-actin Cat. No. 4570, Proteintech: anti-GSPT1, Cat. No. 10763-1-AP) overnight at 4° C. and the HRP-conjugated secondary antibodies (Cell Signaling, Cat. No. 7074, 1:1000 in TBST) for 1 h at room temperature. Imaging was performed using the ECL Prime chemiluminescent Western blot detection reagents (Kindle Biosciences, Cat. No. R1100) by visualization of the blots with an Imager (Kindle Biosciences, Cat. No. D1001). All Western blots were subsequently processed and quantified with Imager software ImageJ and protein level was normalized to the B-actin loading controls.

[10] = tested on: Jeko-1 cells; assay: Alarma Blue cell viability assay, Jeko-1 cells; assay type: cell-based; conditions: 72 h
[11] = molecular target: T5, IKZF3 (Homo sapiens, UniProt Q96SW2+Q9UKT9); assay: Western blotting for IKZF3 in Mino cells; assay type: cell-based; conditions: 24 h, Western blot, read-out: IKZF3-WB Endpoint Dmax
T5 construct: host or cells: Mino
Procedure: as §4
(§5) After treatment, whole cell lysates for immunoblotting were prepared by pelleting Mino cells at 4° C. and 200×g for 5 minutes. […] Imaging was performed using the ECL Prime chemiluminescent Western blot detection reagents (Kindle Biosciences, Cat. No. R1100) by visualization of the blots with an Imager (Kindle Biosciences, Cat. No. D1001). All Western blots were subsequently processed and quantified with Imager software ImageJ and protein level was normalized to the B-actin loading controls.

[12] = molecular target: T6, IKZF3-nLuc (Homo sapiens, UniProt Q96SW2+Q9UKT9); assay: IKZF3-nLuc degradation kinetics assay in HEK-293T cells; assay type: cell-based; conditions: HEK-293T, read-out: IKZF3-nLuc Degradation Kinetics Dmax
T6 construct: Addgene (vector) HsCD00513042; pLenti6.2-ccdB-Nanoluc 87078; host or cells: HEK-293T17
Description: as §4

[13] = molecular target: T7, IKZF1 (Homo sapiens, UniProt Q13422+Q96SW2); assay: Western blotting for IKZF1 in Mino cells; assay type: cell-based; conditions: 24 h, Western blot, read-out: IKZF1-WB Endpoint Dmax
T7 construct: host or cells: Mino
Procedure: as §4, §5

[14] = molecular target: T8, IKZF1-nLuc (Homo sapiens, UniProt Q13422+Q96SW2); assay: IKZF1-nLuc degradation kinetics assay in HEK-293T cells; assay type: cell-based; conditions: HEK-293T, read-out: IKZF1-nLuc Degradation Kinetics Dmax
T8 construct: Addgene (vector) HsCD00512327; pLenti6.2-ccdB-Nanoluc 87078; host or cells: HEK-293T17
Description: as §4

[15] = molecular target: T6, IKZF3-nLuc; assay: IKZF3-nLuc endpoint degradation assay in HEK-293T cells; assay type: cell-based; conditions: HEK-293T, read-out: IKZF3-nLuc Endpoint Dmax
Procedure: as §4
(§6) The nanoluc activity was determined using the furimazine substrate (Promega, Cat. No. N1110). Briefly, after 4 h incubation of indicated compounds, cells were directly lysed by addition of 100 μL of nanoluciferase detection solution, containing lysis buffer and furimazine (1/50 dilution). For the 24-hour treatment group, the old medium was replaced with 100 μL fresh opti-MEM, followed by the addition of equal volume of lysis buffer plus furimazine (1/50 dilution).

[16] = molecular target: T8, IKZF1-nLuc; assay: IKZF1-nLuc endpoint degradation assay in HEK-293T cells; assay type: cell-based; conditions: HEK-293T, read-out: IKZF1-nLuc Endpoint Dmax
Procedure: as §4, §6

[17] = tested on: MOLM-14 cells; assay: Alarma Blue cell viability assay, MOLM14 cells; assay type: cell-based; conditions: Homo sapiens, 72 h, read-out: IC50, cell growth inhibition
Description: as §1

T8 sequence (Q13422 whole entry): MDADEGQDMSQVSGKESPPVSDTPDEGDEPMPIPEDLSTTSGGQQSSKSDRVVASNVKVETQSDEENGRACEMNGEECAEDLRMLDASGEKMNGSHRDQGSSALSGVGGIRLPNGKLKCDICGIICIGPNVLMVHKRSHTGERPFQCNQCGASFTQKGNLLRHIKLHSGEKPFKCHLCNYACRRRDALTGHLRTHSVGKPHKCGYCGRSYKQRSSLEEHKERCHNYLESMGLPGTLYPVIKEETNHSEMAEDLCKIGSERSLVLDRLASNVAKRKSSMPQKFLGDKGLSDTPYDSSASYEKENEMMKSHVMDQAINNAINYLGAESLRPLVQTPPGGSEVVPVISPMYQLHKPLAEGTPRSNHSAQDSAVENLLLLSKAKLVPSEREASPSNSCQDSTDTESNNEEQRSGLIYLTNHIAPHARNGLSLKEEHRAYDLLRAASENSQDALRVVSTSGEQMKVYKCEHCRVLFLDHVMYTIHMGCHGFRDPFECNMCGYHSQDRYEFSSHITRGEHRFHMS
T8 sequence (Q96SW2 whole entry): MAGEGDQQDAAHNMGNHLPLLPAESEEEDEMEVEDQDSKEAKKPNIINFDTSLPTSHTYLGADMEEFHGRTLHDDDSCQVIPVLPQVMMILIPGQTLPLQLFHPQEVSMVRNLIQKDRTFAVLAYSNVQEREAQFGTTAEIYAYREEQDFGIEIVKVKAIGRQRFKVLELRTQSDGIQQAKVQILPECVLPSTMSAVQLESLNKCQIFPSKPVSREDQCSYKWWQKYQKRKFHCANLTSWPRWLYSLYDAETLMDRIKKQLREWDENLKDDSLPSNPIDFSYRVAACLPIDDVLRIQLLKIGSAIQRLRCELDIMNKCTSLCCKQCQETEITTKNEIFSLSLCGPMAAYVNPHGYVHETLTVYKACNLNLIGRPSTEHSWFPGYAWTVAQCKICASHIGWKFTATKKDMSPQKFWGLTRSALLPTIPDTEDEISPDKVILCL
T8 sequence (Q16531 whole entry partner): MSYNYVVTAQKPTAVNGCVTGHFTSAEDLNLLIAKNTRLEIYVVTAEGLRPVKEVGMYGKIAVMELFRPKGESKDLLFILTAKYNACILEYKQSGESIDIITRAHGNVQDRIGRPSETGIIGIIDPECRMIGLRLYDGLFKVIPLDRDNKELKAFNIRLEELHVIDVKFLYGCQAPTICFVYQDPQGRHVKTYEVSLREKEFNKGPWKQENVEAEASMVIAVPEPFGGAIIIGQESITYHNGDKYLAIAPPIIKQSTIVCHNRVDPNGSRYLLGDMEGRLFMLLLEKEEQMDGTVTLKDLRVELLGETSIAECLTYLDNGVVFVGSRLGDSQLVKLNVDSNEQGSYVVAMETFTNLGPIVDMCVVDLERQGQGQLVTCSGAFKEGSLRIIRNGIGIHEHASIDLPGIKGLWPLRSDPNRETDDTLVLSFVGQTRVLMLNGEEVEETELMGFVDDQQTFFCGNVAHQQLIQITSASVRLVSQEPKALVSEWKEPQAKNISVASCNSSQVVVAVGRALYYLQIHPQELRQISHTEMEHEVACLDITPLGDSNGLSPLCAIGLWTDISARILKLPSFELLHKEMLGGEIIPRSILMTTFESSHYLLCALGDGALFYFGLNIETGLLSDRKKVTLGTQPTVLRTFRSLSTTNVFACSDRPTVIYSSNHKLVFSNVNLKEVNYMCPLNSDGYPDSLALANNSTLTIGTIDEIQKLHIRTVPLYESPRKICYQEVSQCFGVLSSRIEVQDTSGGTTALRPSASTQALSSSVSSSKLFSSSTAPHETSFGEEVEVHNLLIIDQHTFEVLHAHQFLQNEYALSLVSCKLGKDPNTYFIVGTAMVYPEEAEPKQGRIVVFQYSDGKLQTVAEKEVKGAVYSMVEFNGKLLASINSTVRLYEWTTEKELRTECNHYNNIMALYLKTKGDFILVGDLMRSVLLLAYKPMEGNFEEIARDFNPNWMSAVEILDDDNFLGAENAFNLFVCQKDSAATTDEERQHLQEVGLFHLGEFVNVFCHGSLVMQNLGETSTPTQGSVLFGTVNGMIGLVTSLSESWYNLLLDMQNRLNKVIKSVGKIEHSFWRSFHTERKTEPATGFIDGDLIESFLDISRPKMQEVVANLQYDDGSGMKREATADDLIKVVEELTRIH
T6 sequence (Q9UKT9 whole entry): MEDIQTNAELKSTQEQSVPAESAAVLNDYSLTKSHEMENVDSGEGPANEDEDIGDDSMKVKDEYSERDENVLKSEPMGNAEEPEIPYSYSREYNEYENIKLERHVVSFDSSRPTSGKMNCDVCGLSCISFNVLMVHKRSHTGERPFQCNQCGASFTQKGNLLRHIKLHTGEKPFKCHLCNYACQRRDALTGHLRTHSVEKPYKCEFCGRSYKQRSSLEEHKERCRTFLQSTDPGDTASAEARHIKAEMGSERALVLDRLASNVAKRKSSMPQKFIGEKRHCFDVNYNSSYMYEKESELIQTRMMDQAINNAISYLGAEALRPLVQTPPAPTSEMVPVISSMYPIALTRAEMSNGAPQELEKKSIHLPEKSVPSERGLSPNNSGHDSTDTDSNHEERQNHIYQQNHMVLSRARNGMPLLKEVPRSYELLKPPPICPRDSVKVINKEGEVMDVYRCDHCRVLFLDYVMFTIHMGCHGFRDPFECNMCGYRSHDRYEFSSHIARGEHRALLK
T6 sequence (Q96SW2 whole entry): as the sequence (Q96SW2 whole entry) above
T6 sequence (Q16531 whole entry partner): as the sequence (Q16531 whole entry partner) above
T1 sequence (Q06187 whole entry): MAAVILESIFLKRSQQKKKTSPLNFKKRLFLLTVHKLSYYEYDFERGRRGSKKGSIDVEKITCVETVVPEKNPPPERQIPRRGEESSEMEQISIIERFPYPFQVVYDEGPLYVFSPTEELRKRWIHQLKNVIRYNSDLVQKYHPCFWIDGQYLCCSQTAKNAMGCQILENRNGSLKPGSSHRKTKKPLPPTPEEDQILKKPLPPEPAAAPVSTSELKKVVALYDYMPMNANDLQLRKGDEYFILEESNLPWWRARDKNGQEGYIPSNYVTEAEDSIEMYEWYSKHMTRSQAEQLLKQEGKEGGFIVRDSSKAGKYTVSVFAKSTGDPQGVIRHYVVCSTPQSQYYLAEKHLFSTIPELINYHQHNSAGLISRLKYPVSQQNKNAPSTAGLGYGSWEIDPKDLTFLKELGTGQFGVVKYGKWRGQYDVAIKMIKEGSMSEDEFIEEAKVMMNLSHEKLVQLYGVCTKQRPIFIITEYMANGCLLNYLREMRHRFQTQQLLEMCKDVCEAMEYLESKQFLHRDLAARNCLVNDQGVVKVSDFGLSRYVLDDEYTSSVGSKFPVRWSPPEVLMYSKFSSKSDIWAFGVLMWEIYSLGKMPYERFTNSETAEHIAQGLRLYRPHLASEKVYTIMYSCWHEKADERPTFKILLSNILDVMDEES
T2 sequence (Q06187 whole entry): as above
T3 sequence (P35991 whole entry): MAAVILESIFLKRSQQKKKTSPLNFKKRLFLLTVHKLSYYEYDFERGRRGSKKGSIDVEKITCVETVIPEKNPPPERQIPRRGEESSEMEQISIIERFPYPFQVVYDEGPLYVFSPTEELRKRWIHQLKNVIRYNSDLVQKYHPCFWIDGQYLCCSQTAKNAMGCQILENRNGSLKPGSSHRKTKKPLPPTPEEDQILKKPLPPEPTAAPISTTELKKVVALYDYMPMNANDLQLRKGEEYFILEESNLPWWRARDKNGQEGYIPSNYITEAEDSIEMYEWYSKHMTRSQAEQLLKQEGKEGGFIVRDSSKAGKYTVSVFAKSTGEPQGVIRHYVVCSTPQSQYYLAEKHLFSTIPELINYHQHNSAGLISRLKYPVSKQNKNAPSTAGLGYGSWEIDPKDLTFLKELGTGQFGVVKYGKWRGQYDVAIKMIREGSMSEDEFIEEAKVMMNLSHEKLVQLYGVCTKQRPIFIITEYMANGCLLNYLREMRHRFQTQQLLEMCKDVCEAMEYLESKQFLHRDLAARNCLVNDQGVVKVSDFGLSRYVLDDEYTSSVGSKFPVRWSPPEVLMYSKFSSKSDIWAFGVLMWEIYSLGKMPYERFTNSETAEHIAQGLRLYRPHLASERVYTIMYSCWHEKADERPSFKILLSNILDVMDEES
T7 sequence (Q13422 whole entry): as the sequence (Q13422 whole entry) above
T7 sequence (Q96SW2 whole entry): as the sequence (Q96SW2 whole entry) above
T7 sequence (Q16531 whole entry partner): as the sequence (Q16531 whole entry partner) above
T4 sequence (P15170 whole entry): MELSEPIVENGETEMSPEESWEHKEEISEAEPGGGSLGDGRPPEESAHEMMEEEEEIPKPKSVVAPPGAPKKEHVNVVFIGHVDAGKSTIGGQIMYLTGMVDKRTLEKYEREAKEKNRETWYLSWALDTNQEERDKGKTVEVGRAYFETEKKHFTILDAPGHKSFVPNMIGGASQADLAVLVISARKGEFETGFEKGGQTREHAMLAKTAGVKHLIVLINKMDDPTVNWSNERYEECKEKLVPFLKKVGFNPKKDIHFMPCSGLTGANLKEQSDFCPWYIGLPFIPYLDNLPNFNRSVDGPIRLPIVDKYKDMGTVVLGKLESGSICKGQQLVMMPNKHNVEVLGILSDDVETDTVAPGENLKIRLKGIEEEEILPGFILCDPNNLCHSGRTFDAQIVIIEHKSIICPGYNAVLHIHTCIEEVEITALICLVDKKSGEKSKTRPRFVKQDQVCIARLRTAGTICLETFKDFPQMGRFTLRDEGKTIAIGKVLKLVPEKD
T4 sequence (Q96SW2 whole entry): as the sequence (Q96SW2 whole entry) above
T4 sequence (Q16531 whole entry partner): as the sequence (Q16531 whole entry partner) above
T5 sequence (Q9UKT9 whole entry): as the sequence (Q9UKT9 whole entry) above
T5 sequence (Q96SW2 whole entry): as the sequence (Q96SW2 whole entry) above
T5 sequence (Q16531 whole entry partner): as the sequence (Q16531 whole entry partner) above

O=C1CCC(N2C(=O)c3cccc(NCC(=O)N4CCN(c5ccc(Nc6nc(Oc7ccccc7)c7occc7n6)cc5)CC4)c3C2=O)C(=O)N1 (stereo not shown) [PS-1, 2-(2,6-Dioxopiperidin-3-yl)-4-((2-oxo-2-(4-(4-((4-phenoxyfuro[3,2-d]pyrimidin-2-yl)amino)phenyl)piperazin-1-yl)ethyl)amino)isoindoline-1,3-dione]
binding to BTK (result in words) [1]: almost no binding to BTK
BTK degradation (result in words) [2]: very weak or no BTK degradation
IC50 ([3]; read-out: IC50, cell growth inhibition / cell viability, Mino cells, 72 h): 16 nM
BTK degradation (result in words) [4]: very weak or no BTK degradation
IC50 [5]: 3 nM

CC(C)(C)/C=C(\C#N)C(=O)Nc1cccc(Oc2nc(Nc3ccc(N4CCN(C(=O)CNc5cccc6c5C(=O)N(C5CCC(=O)NC5=O)C6=O)CC4)cc3)nc3ccoc23)c1 (stereo not shown) [PS-RC-1, (E)-2-cyano-N-(3-((2-((4-(4-((2-(2,6-dioxopiperidin-3-yl)-1,3-dioxoisoindolin-4-yl)glycyl)piperazin-1-yl)phenyl)amino)furo[3,2-d]pyrimidin-4-yl)oxy)phenyl)-4,4-dimethylpent-2-enamide]
GSPT1 degradation (result in words) [6]: does not degrade GSPT1
IC50 shift upon PS-RC-Ctrl pre-treatment [7]: An appreciable IC50 shift was not observed
response of cell growth to compound [8]: poorly respond
BTK degradation (result in words) [9]: none of the tested PROTACs induce appreciable BTK degradation
response of cell growth to compound [10]: poorly respond

Nc1cccc2c1C(=O)N(C1CCC(=O)NC1=O)C2=O (stereo not shown) [Pomalidomide, reference compound]
Dmax [11]: 96%
Dmax at 0.04 µM [12]: 52%
Dmax at 0.2 µM [12]: 64%
IC50 ([3]; read-out: IC50, cell growth inhibition / cell viability): 329 nM
Dmax [13]: 96%
response of cell growth to compound [8]: only Mino cells are responsive
Dmax at 0.04 µM [14]: 53%
Dmax at 0.2 µM [14]: 80%
Dmax [15]: 94%
response of cell growth to compound [10]: only Mino cells are responsive
Dmax [16]: 90%

C=CC(=O)Nc1cccc(Oc2nc(Nc3ccc(N4CCN(C)CC4)cc3)nc3ccoc23)c1 [Poseltinib]
IC50 [17]: 2900 nM
IC50 [1]: 1.21 nM
IC50 ([1]; listed as poseltinib): 1.1 nM and 1.2 nM
binding to BTK (result in words) [1]: binding affinity in the nM range

Source: patent US20240383910A1, “SMALL MOLECULE BTK DEGRADERS AND METHODS OF USE THEREOF” (Baylor College of Medicine, priority 2023, published 2024)
